{"source": "patent US20230085307A1", "about": "“PYRIDAZINONE COMPOUND AND HERBICIDE” (NISSAN CHEMICAL CORPORATION, priority 2019, published 2023)", "key": {"[1]": {"test_system": "redroot pigweed", "experiment": "Test Example 4: herbicidal effect by soil treatment (Table 19, symbol N)", "type": "in vivo, redroot pigweed (Amaranthus retroflexus)", "conditions": "amount of applied herbicide 320 g/ha", "procedure,_shortened": "(§1)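 Emulsion of test compound, water-diluted to predetermined amount, sprayed on soil after sowing (seed depth ~1.5 cm, sterilized diluvial soil). Greenhouse, 25–30° C. Effect graded at three weeks post-spray.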"}, "[2]": {"test_system": "southern crabgrass", "experiment": "Test Example 4: herbicidal effect by soil treatment (Table 19, symbol F)", "type": "in vivo, southern crabgrass (Digitaria ciliaris)", "conditions": "amount of applied herbicide 320 g/ha", "procedure,_shortened": "as §1"}, "[3]": {"test_system": "windgrass", "experiment": "Test Example 4: herbicidal effect by soil treatment (Table 19, symbol L)", "type": "in vivo, windgrass (Apera spica-venti)", "conditions": "amount of applied herbicide 320 g/ha", "procedure,_shortened": "as §1"}, "[4]": {"test_system": "wild oat", "experiment": "Test Example 5: herbicidal effect by foliage application, plastic box (Table 20, symbol I)", "type": "in vivo, wild oat (Avena fatua)", "conditions": "foliage application, 320 g/ha, three weeks after application", "procedure,_shortened": "(§2)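 Post-emergence foliar test in sterilized diluvial soil. Compound applied as water-diluted emulsion at a predetermined rate to 14-day-old plants; evaluation at three weeks.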"}, "[5]": {"test_system": "barnyard grass", "experiment": "Test Example 5: herbicidal effect by foliage application, plastic box (Table 20, symbol H)", "type": "in vivo, barnyard grass (Echinochloa crus-galli)", "conditions": "foliage application, 320 g/ha, three weeks after application", "procedure,_shortened": "as §2"}, "[6]": {"test_system": "Italian ryegrass", "experiment": "Test Example 5: herbicidal effect by foliage application, plastic box (Table 20, symbol K)", "type": "in vivo, Italian ryegrass (Lolium multiflorum)", "conditions": "foliage application, 320 g/ha, three weeks after application", "procedure,_shortened": "as §2"}, "[7]": {"test_system": "lambsquarters", "experiment": "Test Example 4: herbicidal effect by soil treatment (Table 19, symbol O)", "type": "in vivo, lambsquarters (Chenopodium album)", "conditions": "amount of applied herbicide 320 g/ha", "procedure,_shortened": "as §1"}, "[8]": {"test_system": "redroot pigweed", "experiment": "Test Example 5: herbicidal effect by foliage application, plastic box (Table 20, symbol N)", "type": "in vivo, redroot pigweed (Amaranthus retroflexus)", "conditions": "foliage application, 320 g/ha, three weeks after application", "procedure,_shortened": "as §2"}, "[9]": {"test_system": "persian speedwell", "experiment": "Test Example 4: herbicidal effect by soil treatment (Table 19, symbol R)", "type": "in vivo, Persian speedwell (Veronica persica)", "conditions": "amount of applied herbicide 320 g/ha", "procedure,_shortened": "as §1"}, "[10]": {"test_system": "Chinese sprangletop", "experiment": "Test Example 3: herbicidal effect by foliage application, Wagner pot (Table 18, symbol D)", "type": "in vivo, chinese sprangletop (Leptochloa chinensis)", "conditions": "320 g/ha", "procedure,_shortened": "(§3)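 Plants were sown in alluvial soil held under 0.1–0.5 cm standing water and grown 14 days in a greenhouse at 25–30 °C. An emulsifiable formulation, water-diluted to the set dose, was then sprayed onto the foliage, and effects were scored three weeks later using previously defined criteria.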"}, "[11]": {"test_system": "blackgrass", "experiment": "Test Example 4: herbicidal effect by soil treatment (Table 19, symbol J)", "type": "in vivo, blackgrass (Alopecurus myosuroides)", "conditions": "amount of applied herbicide 320 g/ha", "procedure,_shortened": "as §1"}, "[12]": {"test_system": "chickweed", "experiment": "Test Example 5: herbicidal effect by foliage application, plastic box (Table 20, symbol P)", "type": "in vivo, common chickweed (Stellaria media)", "conditions": "foliage application, 320 g/ha, three weeks after application", "procedure,_shortened": "as §2"}, "[13]": {"test_system": "persian speedwell", "experiment": "Test Example 5: herbicidal effect by foliage application, plastic box (Table 20, symbol R)", "type": "in vivo, Persian speedwell (Veronica persica)", "conditions": "foliage application, 320 g/ha, three weeks after application", "procedure,_shortened": "as §2"}, "[14]": {"test_system": "barnyard grass", "experiment": "Test Example 4: herbicidal effect by soil treatment (Table 19, symbol H)", "type": "in vivo, barnyard grass (Echinochloa crus-galli)", "conditions": "amount of applied herbicide 320 g/ha", "procedure,_shortened": "as §1"}, "[15]": {"test_system": "Italian ryegrass", "experiment": "Test Example 4: herbicidal effect by soil treatment (Table 19, symbol K)", "type": "in vivo, Italian ryegrass (Lolium multiflorum)", "conditions": "amount of applied herbicide 320 g/ha", "procedure,_shortened": "as §1"}, "[16]": {"test_system": "green foxtail", "experiment": "Test Example 5: herbicidal effect by foliage application, plastic box (Table 20, symbol G)", "type": "in vivo, green foxtail (Setaria viridis)", "conditions": "foliage application, 320 g/ha, three weeks after application", "procedure,_shortened": "as §2"}, "[17]": {"test_system": "southern crabgrass", "experiment": "Test Example 5: herbicidal effect by foliage application, plastic box (Table 20, symbol F)", "type": "in vivo, southern crabgrass (Digitaria ciliaris)", "conditions": "foliage application, 320 g/ha, three weeks after application", "procedure,_shortened": "as §2"}, "[18]": {"test_system": "barnyard grass", "experiment": "Test Example 3: herbicidal effect by foliage application, Wagner pot (Table 18, symbol H)", "type": "in vivo, barnyard grass (Echinochloa crus-galli)", "conditions": "320 g/ha", "procedure,_shortened": "as §3"}, "[19]": {"test_system": "velvetleaf", "experiment": "Test Example 5: herbicidal effect by foliage application, plastic box (Table 20, symbol M)", "type": "in vivo, velvetleaf (Abutilon theophrasti)", "conditions": "foliage application, 320 g/ha, three weeks after application", "procedure,_shortened": "as §2"}, "[20]": {"test_system": "chickweed", "experiment": "Test Example 4: herbicidal effect by soil treatment (Table 19, symbol P)", "type": "in vivo, common chickweed (Stellaria media)", "conditions": "amount of applied herbicide 320 g/ha", "procedure,_shortened": "as §1"}, "[21]": {"test_system": "rice flat sedge", "experiment": "Test Example 3: herbicidal effect by foliage application, Wagner pot (Table 18, symbol E)", "type": "in vivo, rice flat sedge (Cyperus iria)", "conditions": "320 g/ha", "procedure,_shortened": "as §3"}, "[22]": {"test_system": "windgrass", "experiment": "Test Example 5: herbicidal effect by foliage application, plastic box (Table 20, symbol L)", "type": "in vivo, windgrass (Apera spica-venti)", "conditions": "foliage application, 320 g/ha, three weeks after application", "procedure,_shortened": "as §2"}, "[23]": {"test_system": "lambsquarters", "experiment": "Test Example 5: herbicidal effect by foliage application, plastic box (Table 20, symbol O)", "type": "in vivo, lambsquarters (Chenopodium album)", "conditions": "foliage application, 320 g/ha, three weeks after application", "procedure,_shortened": "as §2"}, "[24]": {"test_system": "wild oat", "experiment": "Test Example 4: herbicidal effect by soil treatment (Table 19, symbol I)", "type": "in vivo, wild oat (Avena fatua)", "conditions": "amount of applied herbicide 320 g/ha", "procedure,_shortened": "as §1"}, "[25]": {"test_system": "blackgrass", "experiment": "Test Example 5: herbicidal effect by foliage application, plastic box (Table 20, symbol J)", "type": "in vivo, blackgrass (Alopecurus myosuroides)", "conditions": "foliage application, 320 g/ha, three weeks after application", "procedure,_shortened": "as §2"}, "[26]": {"test_system": "velvetleaf", "experiment": "Test Example 4: herbicidal effect by soil treatment (Table 19, symbol M)", "type": "in vivo, velvetleaf (Abutilon theophrasti)", "conditions": "amount of applied herbicide 320 g/ha", "procedure,_shortened": "as §1"}}, "data": [{"molecule": "CSc1ccccc1-c1sc2ccccc2c1-c1c(O)c(C)nn(C)c1=O", "note": "[1-034]", "values": [{"measurement": "herbicidal effect rating, N: redroot pigweed", "setting": "[1]", "value": "0 (Herbicidal rate of 5% or less (almost no effect))"}, {"measurement": "herbicidal effect rating, F: southern crabgrass", "setting": "[2]", "value": "0 (Herbicidal rate of 5% or less (almost no effect))"}, {"measurement": "herbicidal effect rating, L: windgrass", "setting": "[3]", "value": "0 (Herbicidal rate of 5% or less (almost no effect))"}, {"measurement": "herbicidal effect grade, I: wild oat", "setting": "[4]", "value": "2 (Herbicidal rate of 20% or more and less than 40%)"}, {"measurement": "herbicidal effect grade, H: barnyard grass", "setting": "[5]", "value": "0 (Herbicidal rate of 5% or less (almost no effect))"}, {"measurement": "herbicidal effect grade, K: Italian ryegrass", "setting": "[6]", "value": "0 (Herbicidal rate of 5% or less (almost no effect))"}, {"measurement": "herbicidal effect rating, O: lambsquarters", "setting": "[7]", "value": "0 (Herbicidal rate of 5% or less (almost no effect))"}, {"measurement": "herbicidal effect grade, N: redroot pigweed", "setting": "[8]", "value": "0 (Herbicidal rate of 5% or less (almost no effect))"}, {"measurement": "herbicidal effect rating, R: persian speedwell", "setting": "[9]", "value": "0 (Herbicidal rate of 5% or less (almost no effect))"}, {"measurement": "herbicidal effect on D (Chinese sprangletop), rating 0-5", "setting": "[10]", "value": "0 (Herbicidal rate of 5% or less (almost no effect))"}, {"measurement": "herbicidal effect rating, J: blackgrass", "setting": "[11]", "value": "0 (Herbicidal rate of 5% or less (almost no effect))"}, {"measurement": "herbicidal effect grade, P: chickweed", "setting": "[12]", "value": "4 (Herbicidal rate of 70% or more and less than 90%)"}, {"measurement": "herbicidal effect grade, R: persian speedwell", "setting": "[13]", "value": "1 (Herbicidal rate of 5% or more and less than 20%)"}, {"measurement": "herbicidal effect rating, H: barnyard grass", "setting": "[14]", "value": "0 (Herbicidal rate of 5% or less (almost no effect))"}, {"measurement": "herbicidal effect rating, K: Italian ryegrass", "setting": "[15]", "value": "0 (Herbicidal rate of 5% or less (almost no effect))"}, {"measurement": "herbicidal effect grade, G: green foxtail", "setting": "[16]", "value": "0 (Herbicidal rate of 5% or less (almost no effect))"}, {"measurement": "herbicidal effect grade, F: southern crabgrass", "setting": "[17]", "value": "0 (Herbicidal rate of 5% or less (almost no effect))"}, {"measurement": "herbicidal effect on H (barnyard grass), rating 0-5", "setting": "[18]", "value": "1 (Herbicidal rate of 5% or more and less than 20%)"}, {"measurement": "herbicidal effect grade, M: velvetleaf", "setting": "[19]", "value": "0 (Herbicidal rate of 5% or less (almost no effect))"}, {"measurement": "herbicidal effect rating, P: chickweed", "setting": "[20]", "value": "3 (Herbicidal rate of 40% or more and less than 70%)"}, {"measurement": "herbicidal effect on E (rice flat sedge), rating 0-5", "setting": "[21]", "value": "3 (Herbicidal rate of 40% or more and less than 70%)"}, {"measurement": "herbicidal effect grade, L: windgrass", "setting": "[22]", "value": "0 (Herbicidal rate of 5% or less (almost no effect))"}, {"measurement": "herbicidal effect grade, O: lambsquarters", "setting": "[23]", "value": "0 (Herbicidal rate of 5% or less (almost no effect))"}, {"measurement": "herbicidal effect rating, I: wild oat", "setting": "[24]", "value": "0 (Herbicidal rate of 5% or less (almost no effect))"}, {"measurement": "herbicidal effect grade, J: blackgrass", "setting": "[25]", "value": "0 (Herbicidal rate of 5% or less (almost no effect))"}, {"measurement": "herbicidal effect rating, M: velvetleaf", "setting": "[26]", "value": "0 (Herbicidal rate of 5% or less (almost no effect))"}]}]}
